As a reminder, the IC50 is the point on the concentration scale where inhibition reaches its midpoint. Lower therefore signals greater potency.

Two compounds from patent US20150010474A1, “Compounds And Methods For Selective Imaging And/Or Ablation” (Auckland Uniservices Limited, priority 2011, published 2015) can be followed below.

For series [1], the system named is HCT-116 cells stably expressing E. coli NfsA. In words: Flow cytometry of metabolism and cellular retention (EF5 antibody). In kind it is cell-based, human. The conditions noted are these: 20 μM; for Metabolism and cellular retention by FACS, HCT-116 NfsA cells (FIG. 3): 2 hours, oxic conditions (21% O2, 5% CO2). As for the experimental part:
(§1) FIG. 3 illustrates the results of flow cytometry analysis of HCT-116 cells stably expressing E. coli NfsA relative to HCT-116 wild-type cells after in vitro exposure to 20 μM of compounds 15, 93 and 67 for 2 hours. 1×10^6 cells were incubated with test compounds under oxic conditions. Samples were fixed and stained with EF5 antibody Alexa 488 ELK3.51 at 100 μg/ml. Samples were then analysed on a Becton Dickinson FACscan flow cytometer.
(§2) FIG. 4 illustrates the results of a second independent flow cytometry analysis of compound 15 and 93 metabolism and binding in wild-type HCT-116 cells, HCT-116 cells stably over-expressing cytochrome P450 reductase (CYPOR), a human one-electron reductase known to metabolise nitroheterocyclic and nitroaromatic compounds, or HCT-116 cells stably expressing the bacterial nitroreductase E. coli NfsA. 1×10^6HCT-116 cells were seeded in 6 well plates underaerobic conditions (21% O2, 5% CO2). After 2 h incubation, drug free control (wild-type HCT-116, foreground), 20 μM (wild-type HCT-116, second plot), 100 μM (wild-type HCT-116, third plot), 20 μM (HCT-116-CYPOR, forth plot), 100 μM (HCT-116-CYPOR, fifth plot) or 20 μM (HCT-116-NfsA, sixth plot) of compound 15 or 93 was added. After 2 h incubation cells were harvested and fixed with paraformaldehyde before being incubated overnight with 100 μl of 75 μg/ml EF5 CY5 conjugated antibody. Samples were then analysed on a Becton Dickinson FACscan flow cytometer.

Series [2] has as its system HCT-116 cells stably over-expressing cytochrome P450 reductase (CYPOR). Kind of series: Flow cytometry of metabolism and binding (EF5 antibody). In kind it is cell-based, human. The settings on record: 2 h. As for the experimental part:
as §2
FIG. 5 illustrates the results of flow cytometry analysis of HCT-116 cells stably over-expressing cytochrome P450 reductase (CYPOR), a human one-electron reductase known to metabolise nitroheterocyclic and nitroaromatic compounds. 1×10^6HCT-116-CYPOR cells were seeded in 6 well plates in aerobic, anoxic and 0.2% oxygen conditions designed to replicate the lower limit of pathological hypoxia observed in human tumours. After 2 h incubation, drug free control (foreground), 20 μM (middle) or 100 μM (background) of compound 15 or 67 was added. After 2 h incubation cells were harvested and fixed with paraformaldehyde before being incubated overnight with 100 μl of 75 μg/ml EF5 CY5 conjugated antibody. Samples were then analysed on a Becton Dickinson FAC scan flow cytometer.
(§3) FIG. 6 illustrates the results of flow cytometry analysis of compound 15 and 93 metabolism and binding in wild-type HCT-116 cells and HCT-116 cells stably over-expressing cytochrome P450 reductase (CYPOR), a human one-electron reductase known to metabolise nitroheterocyclic and nitroaromatic compounds. 1×10^6 HCT-116 cells were seeded in 6 well plates underanoxic conditions. After 2 h incubation, drug free control (wild-type HCT-116, foreground), 20 μM (wild-type HCT-116, second plot), 100 μM (wild-type HCT-116, third plot), 20 μM (HCT-116-CYPOR, forth plot) or 100 μM (HCT-116-CYPOR, fifth plot) of compound 15 or 93 was added. After 2 h incubation cells were harvested and fixed with paraformaldehyde before being incubated overnight with 100 μl of 75 μg/ml EF5 CY5 conjugated antibody. Samples were then analysed on a Becton Dickinson FACscan flow cytometer.
(In general: Flow cytometry measures light scatter and fluorescence of single cells or particles in a stream.)

The next series deals with wild-type HCT-116 cells. Described as above. In kind it is cell-based, human. The conditions noted are these: for Metabolism and binding by FACS, wild-type HCT-116 cells (FIG. 3): 20 μM, 2 hours, oxic conditions (21% O2, 5% CO2). The protocol: as §1, §2, §3
In series [3] the test system is human lung tumour xenograft NCI-H1299 harbouring approximately 5% NfsA-positive cells. In words: In vivo binding by immunohistochemistry in mixed NfsA/WT xenograft. Set-up: species or system NIH-III nude mice. The settings on record: 60 mg/kg i.p., tumours excised after 60 minutes; ELK3-51-CY5 antibody. As for the experimental part:
FIG. 8 illustrates the in vivo binding of compounds 15, 93 and 67 in the human lung tumour xenograft NCI-H1299 harbouring approximately 5% NfsA-positive cells. […] Mixed NfsA/WT NCI-H1299 cells were inoculated subcutaneously onto the flank of NIH-III nude mice. When the mixed tumours reached approximately 500 mm^3, mice were dosed i.p. with 60 mg/kg of either compound 15, compound 93 or compound 67. After 60 minutes the tumours were excised, and fixed in formalin before being embedded in paraffin wax. Tumour section were cut (5 microns) and mounted onto glass slides for immunodetection of bound adducts of compound 15, compound 93 or compound 67 using the monoclonal antibody ELK3-51 directly conjugated to the fluorophore CY5 (Ex/Em 650/670 nm). Fluorescent microscopy was employed to visualise the presence of cellular adducts of each test compound present in individual tumour cells. Image gain was reduced due to intense fluorescent signal indicating extensive adduct binding. Images were acquired on a Zeiss LSM 710 confocal microscope (×20 magnification).

Series [4] is described as follows: One-electron reduction potential E(1) by pulse radiolysis. The settings on record: determined against methylviologen, E(1)MV2+/MV+. = −447 ± 7 mV. In kind it is physicochemical. From the text: The E(1) values of many compounds can be obtained from the literature, (for example, Wardman, P. J. Phys. Chem. Ref. Data, 1989, 18, 1637-1755.) or determined by a number of methods. The pulse radiolysis method, for example, measures the equilibrium constant between the radical anions of the nitroheterocyclic or nitroaromatic compound, formed upon their 1-electron reduction, and reference standards such as viologen and quinone compounds, from which data the E(1) values of the compounds can be calculated. (Meisel and Czapski. J. Phys. Chem., 1975, 79, 1503-1509.)
(Anderson et al, J. Phys. Chem. A, 101, 9704-9709, 1997).

Series [5] deals with HCT116 cells overexpressing the nitroreductase NfsA from E. coli. In words: Inhibition of cell proliferation, low cell density IC50 assay. The settings on record: for IC50: Homo sapiens, HCT-116, 4 hour drug exposure, washing and regrowth for 5 days; for WT:NfsA: WT IC50/NfsA IC50. In kind it is cell-based, human. The protocol: IC50 values were determined as the concentration of prodrug required to inhibit cell growth by 50% of untreated controls following 4 hour drug exposure, with washing and regrowth for 5 days. WT:NfsA ratios were determined as the WT IC50/NfsA IC50.

Regarding `Cc1ncc([N+](=O)[O-])n1CC(=O)NCC(F)(F)C(F)(F)F` [Compound 67, 2-(2-methyl-5-nitro-1H-imidazol-1-yl)-N-(2,2,3,3,3-pentafluoropropyl)acetamide], the “Metabolism and cellular retention by FACS, HCT-116 NfsA cells (FIG. 3)” value in series [1] is given as “excellent substrates for E. coli NfsA”. In series [2] (20 μM or 100 μM, 0.2% oxygen), the “Metabolism and binding by FACS, HCT-116-CYPOR cells, 0.2% oxygen (FIG. 5)” value is “negligible metabolism and binding”. Besides, the “Metabolism and binding by FACS, HCT-116-CYPOR cells, aerobic (FIG. 5)” value in series [2] (20 μM or 100 μM, aerobic) was “negligible metabolism and binding”. In the series with wild-type HCT-116 cells, the “Metabolism and binding by FACS, wild-type HCT-116 cells (FIG. 3)” value is “minimal metabolism and binding”. Also, the “Detection of NfsA expressing cells after in vivo binding (FIG. 8)” value in series [3] is “readily detected by immunohistochemistry with single cell resolution”. For the same compound, the “E(1)/V” value in series [4] is −0.501 V. In addition, in series [5], the IC50 came to 19 µM and the “WT:NfsA” value was 332.

`O=C(Cn1cnc([N+](=O)[O-])c1)NCC(F)(F)C(F)(F)F` [Compound 93, 2-(4-nitro-1H-imidazol-1-yl)-N-(2,2,3,3,3-pentafluoropropyl)acetamide]: in series [1] (2 h, aerobic conditions), the “Metabolism and cellular retention by FACS, HCT-116 NfsA cells (FIG. 4)” value is reported as “excellent substrates for E. coli NfsA”. For the same compound, the “Metabolism and cellular retention by FACS, HCT-116 NfsA cells (FIG. 3)” value in series [1] was “excellent substrates for E. coli NfsA”. In series [2] (20 μM and 100 μM, aerobic conditions), the “Metabolism and binding by FACS, HCT-116-CYPOR cells (FIG. 4)” value was “minimal metabolism and binding”. Also, in series [2] (20 μM and 100 μM, anoxic conditions), the “Metabolism and binding by FACS, HCT-116-CYPOR cells, anoxia (FIG. 6)” value was “negligible metabolism and binding”. Further, the “Metabolism and binding by FACS, wild-type HCT-116 cells (FIG. 4)” value in the series on wild-type HCT-116 cells (20 μM and 100 μM, 2 h, aerobic conditions) is “minimal metabolism and binding”. Further, the “Metabolism and binding by FACS, wild-type HCT-116 cells, anoxia (FIG. 6)” value in the series with wild-type HCT-116 cells (20 μM and 100 μM, 2 h, anoxic conditions) is “negligible metabolism and binding”. In addition, the “Metabolism and binding by FACS, wild-type HCT-116 cells (FIG. 3)” value with wild-type HCT-116 cells was “minimal metabolism and binding”. Also, the “Detection of NfsA expressing cells after in vivo binding (FIG. 8)” value in series [3] is reported as “readily detected by immunohistochemistry with single cell resolution”. In addition, in series [4], the “E(1)/V” value is given as −0.578 V. Moreover, in series [5], it took 14.5 µM to reach half-maximal inhibition (IC50) and the “WT:NfsA” value is 100.
